For twelve compounds, Kd, Selectivity and IC50 results are on record in US20250152585A1, “PHARMACEUTICAL COMPOUND” (Duke Street Bio Limited, priority 2022, published 2025).

T1 sequence (Q9UGN5 whole entry, the tested form may be a part): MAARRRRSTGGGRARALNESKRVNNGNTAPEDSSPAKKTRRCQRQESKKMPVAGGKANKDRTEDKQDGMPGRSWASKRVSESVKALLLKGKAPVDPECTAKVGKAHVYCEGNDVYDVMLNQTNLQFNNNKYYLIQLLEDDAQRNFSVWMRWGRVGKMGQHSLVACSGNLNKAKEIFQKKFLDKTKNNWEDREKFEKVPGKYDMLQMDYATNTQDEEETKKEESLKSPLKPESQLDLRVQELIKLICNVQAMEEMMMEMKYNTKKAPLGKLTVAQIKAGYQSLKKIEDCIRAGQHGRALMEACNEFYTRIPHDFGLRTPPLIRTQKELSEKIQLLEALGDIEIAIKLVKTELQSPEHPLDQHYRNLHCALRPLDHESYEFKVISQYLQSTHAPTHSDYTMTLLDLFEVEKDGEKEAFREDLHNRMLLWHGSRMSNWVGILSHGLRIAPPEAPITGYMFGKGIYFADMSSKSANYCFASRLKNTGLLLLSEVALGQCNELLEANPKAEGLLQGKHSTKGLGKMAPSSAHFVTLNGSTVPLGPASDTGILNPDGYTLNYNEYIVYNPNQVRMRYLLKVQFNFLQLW
T2 sequence (P09874 whole entry): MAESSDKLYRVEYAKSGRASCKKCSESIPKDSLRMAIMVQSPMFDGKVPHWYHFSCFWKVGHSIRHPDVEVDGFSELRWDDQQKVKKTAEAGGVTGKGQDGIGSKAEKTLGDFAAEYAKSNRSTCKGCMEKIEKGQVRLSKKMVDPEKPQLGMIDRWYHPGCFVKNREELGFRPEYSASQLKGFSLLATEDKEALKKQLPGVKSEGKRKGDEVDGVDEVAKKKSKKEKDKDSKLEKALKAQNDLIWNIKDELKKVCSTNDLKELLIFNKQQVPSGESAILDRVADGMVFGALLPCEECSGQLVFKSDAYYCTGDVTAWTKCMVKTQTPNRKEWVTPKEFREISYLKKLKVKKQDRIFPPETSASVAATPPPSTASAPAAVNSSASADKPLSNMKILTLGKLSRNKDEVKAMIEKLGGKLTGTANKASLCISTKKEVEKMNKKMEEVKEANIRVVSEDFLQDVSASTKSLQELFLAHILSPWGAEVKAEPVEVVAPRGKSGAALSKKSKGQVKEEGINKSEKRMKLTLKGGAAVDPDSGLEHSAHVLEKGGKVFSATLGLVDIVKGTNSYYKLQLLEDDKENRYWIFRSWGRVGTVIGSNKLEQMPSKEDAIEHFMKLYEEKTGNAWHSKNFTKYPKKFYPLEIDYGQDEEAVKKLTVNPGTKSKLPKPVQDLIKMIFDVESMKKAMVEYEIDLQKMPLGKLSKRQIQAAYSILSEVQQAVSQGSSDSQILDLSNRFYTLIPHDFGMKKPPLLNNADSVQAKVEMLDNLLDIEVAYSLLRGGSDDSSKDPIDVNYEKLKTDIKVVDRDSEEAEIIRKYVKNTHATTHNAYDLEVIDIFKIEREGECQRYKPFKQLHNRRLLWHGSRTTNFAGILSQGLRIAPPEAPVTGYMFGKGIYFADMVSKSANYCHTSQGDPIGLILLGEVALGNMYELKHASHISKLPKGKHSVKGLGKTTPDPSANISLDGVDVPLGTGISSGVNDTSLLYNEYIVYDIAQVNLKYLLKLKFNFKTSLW

The first test addresses T1, N-terminally FLAG-tagged PARP2 (amino acids 1-583) (Homo sapiens, UniProt Q9UGN5).
T1 construct: N-terminally FLAG-tagged PARP2 (amino acids 1-583)
Kind of test: PARP2 probe displacement HTRF assay. It is filed as binding. The conditions noted are these: binned Kd, PARP2 probe displacement HTRF. The protocol: Data analysis was performed identical as for PARP1.
`CNC(=O)c1ccc(N2CCC(N3CCCC(c4cc5ccccc5c(=O)[nH]4)C3)CC2)cn1` (single isomer, unassigned) [Compound 100b] came in with a Kd of 1 to 10 µM.
As to `CNC(=O)c1ccc(N2CCC(N3CCC(c4nc5cccc(F)c5c(=O)[nH]4)C3)CC2)cn1` (single isomer, unassigned) [Compound 101a], the Kd was 0.1 to 1 µM.
Regarding `CNC(=O)c1ccc(N2CCC(N3CCC(c4nc5cccc(F)c5c(=O)[nH]4)C3)CC2)cn1` (single isomer, unassigned) [Compound 101b], the Kd is 0.1 to 1 µM.
`CNC(=O)c1ccc(N2CCC(N3CCCC(c4nc5cnccc5c(=O)[nH]4)C3)CC2)cn1` (single isomer, unassigned) [Compound 106a] yielded a Kd above 10 µM.
Consider `CNC(=O)c1ccc(N2CCC(N3CCCC(c4nc5cnccc5c(=O)[nH]4)C3)CC2)cn1` (single isomer, unassigned) [Compound 106b], for which the Kd is above 10 µM.
As to `O=c1[nH]c(C2CCN(C3CCN(c4ccc(F)cc4F)CC3)C2)nc2ccccc12` (single isomer, unassigned) [Compound 107a], the Kd fell in the range of 1 to 10 µM.
Take `O=c1[nH]c(C2CCN(C3CCN(c4ccc(F)cc4F)CC3)C2)nc2ccccc12` (single isomer, unassigned) [Compound 107b]: the Kd is 0.1 to 1 µM.
Compound `CNC(=O)c1ccc(N2CCC(N3CCCC(c4nc5cc(F)ccc5c(=O)[nH]4)C3)CC2)cn1` (single isomer, unassigned) [Compound 108a] gave a Kd above 10 µM.
For the compound `CNC(=O)c1ccc(N2CCC(N3CCCC(c4nc5cc(F)ccc5c(=O)[nH]4)C3)CC2)cn1` (single isomer, unassigned) [Compound 108b], the Kd was above 10 µM.
Consider `NC(=O)c1ccc(N2CCC(N3CCCC(c4nc5ccccc5c(=O)[nH]4)C3)CC2)cn1` (single isomer, unassigned) [Compound 109a], for which the Kd is above 10 µM.
Same read-out and setting: as for `NC(=O)c1ccc(N2CCC(N3CCCC(c4nc5ccccc5c(=O)[nH]4)C3)CC2)cn1` (single isomer, unassigned) [Compound 109b], the figure is 1 to 10 µM.
The compound `O=C(NCCF)c1ccc(N2CCC(N3CCCC(c4nc5ccccc5c(=O)[nH]4)C3)CC2)cn1` (single isomer, unassigned) [Compound 110a] had a Kd above 10 µM.

The next test has as its target T2, full length N-terminally FLAG-tagged PARP1 (Homo sapiens, UniProt P09874). As to the kind of experiment: PARP1 probe displacement HTRF assay. Particulars: PARP1 over PARP2, ratio Kd (PARP2)/Kd (PARP1), probe displacement HTRF. On the technique in general: Time-resolved FRET reads energy transfer from a long-lived donor to a nearby acceptor.
With `CNC(=O)c1ccc(N2CCC(N3CCCC(c4cc5ccccc5c(=O)[nH]4)C3)CC2)cn1` (single isomer, unassigned) [Compound 100b], the Selectivity result was “+++ (+++ indicate a value of at least 100)”.
Turning to `CNC(=O)c1ccc(N2CCC(N3CCC(c4nc5cccc(F)c5c(=O)[nH]4)C3)CC2)cn1` (single isomer, unassigned) [Compound 101a], the Selectivity result is “+ (+ indicates a value of 10 to less than 50)”.
Consider `CNC(=O)c1ccc(N2CCC(N3CCC(c4nc5cccc(F)c5c(=O)[nH]4)C3)CC2)cn1` (single isomer, unassigned) [Compound 101b], for which the Selectivity result was “+++ (+++ indicate a value of at least 100)”.
For the compound `CNC(=O)c1ccc(N2CCC(N3CCCC(c4nc5cnccc5c(=O)[nH]4)C3)CC2)cn1` (single isomer, unassigned) [Compound 106a], the Selectivity entry is “+ (+ indicates a value of 10 to less than 50)”.
Regarding `CNC(=O)c1ccc(N2CCC(N3CCCC(c4nc5cnccc5c(=O)[nH]4)C3)CC2)cn1` (single isomer, unassigned) [Compound 106b], the Selectivity entry is on record as “− (− indicates a value of less than 10)”.
In the case of `O=c1[nH]c(C2CCN(C3CCN(c4ccc(F)cc4F)CC3)C2)nc2ccccc12` (single isomer, unassigned) [Compound 107a], the Selectivity result is given as “+ (+ indicates a value of 10 to less than 50)”.
On to `O=c1[nH]c(C2CCN(C3CCN(c4ccc(F)cc4F)CC3)C2)nc2ccccc12` (single isomer, unassigned) [Compound 107b], for which the Selectivity entry is on record as “− (− indicates a value of less than 10)”.
Take `CNC(=O)c1ccc(N2CCC(N3CCCC(c4nc5cc(F)ccc5c(=O)[nH]4)C3)CC2)cn1` (single isomer, unassigned) [Compound 108a]: the Selectivity entry is given as “− (− indicates a value of less than 10)”.
Regarding `CNC(=O)c1ccc(N2CCC(N3CCCC(c4nc5cc(F)ccc5c(=O)[nH]4)C3)CC2)cn1` (single isomer, unassigned) [Compound 108b], the Selectivity entry was “+ (+ indicates a value of 10 to less than 50)”.
On the same count and under the same terms, for `NC(=O)c1ccc(N2CCC(N3CCCC(c4nc5ccccc5c(=O)[nH]4)C3)CC2)cn1` (single isomer, unassigned) [Compound 109a] the value was “+++ (+++ indicate a value of at least 100)”; for `NC(=O)c1ccc(N2CCC(N3CCCC(c4nc5ccccc5c(=O)[nH]4)C3)CC2)cn1` (single isomer, unassigned) [Compound 109b], “+ (+ indicates a value of 10 to less than 50)”.
`O=C(NCCF)c1ccc(N2CCC(N3CCCC(c4nc5ccccc5c(=O)[nH]4)C3)CC2)cn1` (single isomer, unassigned) [Compound 110a]: the Selectivity result is on record as “+++ (+++ indicate a value of at least 100)”.

Staying with this test, now noted: read-out: PARP1 HTRF; binned Kd, PARP1 probe displacement HTRF.
`CNC(=O)c1ccc(N2CCC(N3CCCC(c4cc5ccccc5c(=O)[nH]4)C3)CC2)cn1` (single isomer, unassigned) [Compound 100b]: the Kd fell in the range of 0.01 to 0.1 µM.
With `CNC(=O)c1ccc(N2CCC(N3CCC(c4nc5cccc(F)c5c(=O)[nH]4)C3)CC2)cn1` (single isomer, unassigned) [Compound 101a], the Kd was in the range of 0.01 to 0.1 µM.
Take `CNC(=O)c1ccc(N2CCC(N3CCC(c4nc5cccc(F)c5c(=O)[nH]4)C3)CC2)cn1` (single isomer, unassigned) [Compound 101b]: the Kd is below 0.01 µM.
Same read-out and setting: for `CNC(=O)c1ccc(N2CCC(N3CCCC(c4nc5cnccc5c(=O)[nH]4)C3)CC2)cn1` (single isomer, unassigned) [Compound 106a] the value was 0.1 to 1 µM; for `CNC(=O)c1ccc(N2CCC(N3CCCC(c4nc5cnccc5c(=O)[nH]4)C3)CC2)cn1` (single isomer, unassigned) [Compound 106b], above 10 µM; for `O=c1[nH]c(C2CCN(C3CCN(c4ccc(F)cc4F)CC3)C2)nc2ccccc12` (single isomer, unassigned) [Compound 107a], 0.01 to 0.1 µM.
The same measure, in the same setting: for `O=c1[nH]c(C2CCN(C3CCN(c4ccc(F)cc4F)CC3)C2)nc2ccccc12` (single isomer, unassigned) [Compound 107b] the value was 0.1 to 1 µM.
Regarding `CNC(=O)c1ccc(N2CCC(N3CCCC(c4nc5cc(F)ccc5c(=O)[nH]4)C3)CC2)cn1` (single isomer, unassigned) [Compound 108a], the Kd fell in the range of 0.1 to 1 µM.
As to `CNC(=O)c1ccc(N2CCC(N3CCCC(c4nc5cc(F)ccc5c(=O)[nH]4)C3)CC2)cn1` (single isomer, unassigned) [Compound 108b], the Kd is 0.1 to 1 µM.
On the same count and under the same terms, for `NC(=O)c1ccc(N2CCC(N3CCCC(c4nc5ccccc5c(=O)[nH]4)C3)CC2)cn1` (single isomer, unassigned) [Compound 109a] the value was below 0.01 µM; for `NC(=O)c1ccc(N2CCC(N3CCCC(c4nc5ccccc5c(=O)[nH]4)C3)CC2)cn1` (single isomer, unassigned) [Compound 109b], 0.1 to 1 µM; for `O=C(NCCF)c1ccc(N2CCC(N3CCCC(c4nc5ccccc5c(=O)[nH]4)C3)CC2)cn1` (single isomer, unassigned) [Compound 110a], below 0.01 µM.

Another test concerns the target T2, full length N-terminally FLAG-tagged PARP1. As to the kind of experiment: PARP1 biochemical DELFIA assay (auto-PARylation). Also on record: recombinant full length human N-terminally FLAG-tagged PARP1. The conditions noted are these: binned IC50, PARP1 biochemical DELFIA assay.
Take `CNC(=O)c1ccc(N2CCC(N3CCCC(c4cc5ccccc5c(=O)[nH]4)C3)CC2)cn1` (single isomer, unassigned) [Compound 100b]: the half-inhibitory concentration (IC50) fell in the range of 0.01 to 0.1 µM.
Consider `CNC(=O)c1ccc(N2CCC(N3CCC(c4nc5cccc(F)c5c(=O)[nH]4)C3)CC2)cn1` (single isomer, unassigned) [Compound 101a], for which the IC50 was 0.01 to 0.1 µM.
Turning to `CNC(=O)c1ccc(N2CCC(N3CCC(c4nc5cccc(F)c5c(=O)[nH]4)C3)CC2)cn1` (single isomer, unassigned) [Compound 101b], the IC50 was below 0.01 µM.
In the case of `CNC(=O)c1ccc(N2CCC(N3CCCC(c4nc5cnccc5c(=O)[nH]4)C3)CC2)cn1` (single isomer, unassigned) [Compound 106a], the IC50 was in the range of 0.1 to 1 µM.
Turning to `CNC(=O)c1ccc(N2CCC(N3CCCC(c4nc5cnccc5c(=O)[nH]4)C3)CC2)cn1` (single isomer, unassigned) [Compound 106b], the IC50 was in the range of 1 to 10 µM.
Still for that read-out and setting: for `O=c1[nH]c(C2CCN(C3CCN(c4ccc(F)cc4F)CC3)C2)nc2ccccc12` (single isomer, unassigned) [Compound 107a] the value was 0.01 to 0.1 µM; for `O=c1[nH]c(C2CCN(C3CCN(c4ccc(F)cc4F)CC3)C2)nc2ccccc12` (single isomer, unassigned) [Compound 107b], 0.1 to 1 µM; for `CNC(=O)c1ccc(N2CCC(N3CCCC(c4nc5cc(F)ccc5c(=O)[nH]4)C3)CC2)cn1` (single isomer, unassigned) [Compound 108a], 0.1 to 1 µM.
`CNC(=O)c1ccc(N2CCC(N3CCCC(c4nc5cc(F)ccc5c(=O)[nH]4)C3)CC2)cn1` (single isomer, unassigned) [Compound 108b]: the IC50 was 0.1 to 1 µM.
For the compound `NC(=O)c1ccc(N2CCC(N3CCCC(c4nc5ccccc5c(=O)[nH]4)C3)CC2)cn1` (single isomer, unassigned) [Compound 109a], the IC50 is 0.01 to 0.1 µM.
On the same count and under the same terms, for `NC(=O)c1ccc(N2CCC(N3CCCC(c4nc5ccccc5c(=O)[nH]4)C3)CC2)cn1` (single isomer, unassigned) [Compound 109b] the value was 0.01 to 0.1 µM; for `O=C(NCCF)c1ccc(N2CCC(N3CCCC(c4nc5ccccc5c(=O)[nH]4)C3)CC2)cn1` (single isomer, unassigned) [Compound 110a], below 0.01 µM.

Usually IC50 stands for the midpoint of a concentration-inhibition curve.
